Measurements taken from patent US20230002439A1, “CRYSTALLINE FORMS OF VAMOROLONE” (ReveraGen BioPharma, Inc., priority 2021, published 2023).
One block for each compound: values may come before it.

How the values were obtained:
[1] = Thermogravimetric analysis (TGA); format: physicochemical
Method: TGA analyses were carried out on a TA Instruments TGA Q500. Approximately 2.0 mg of samples were placed in a tared platinum or aluminum pan, automatically weighed, and inserted into the TGA furnace. The samples were heated at 10° C./min to a final temperature of 300° C. The purge gas is nitrogen for balance at 40 mL/min and the sample at 60 mL/min, respectively.

[2] = DSC thermal treatment and hot-stage pXRD (Form II vs. Form I); format: physicochemical
Method: The melting of vamorolone was performed in a DSC apparatus at a heating rate of 10° C./min. The DSC furnace was programmed to cool at 10° C./min down to −40° C. A second heating cycle at a heating rate of 10° C./min was performed.
The solid samples were examined using an X-ray diffractometer (Bruker D8 advance). The system is equipped with highly-parallel x-ray beams (Göbel Mirror) and a LynxEye detector. The samples were scanned from 3 to 40° 20 at a step size of 0.02° 20 and a time per step of 19.70 seconds. The tube voltage and current were 45 kV and 40 mA, respectively. The sample was transferred from the sample container onto a zero background XRD-holder and gently ground.
DSC analyses were conducted on a TA Instruments Q200. The calibration standard was indium. A sample of 2.0 mg in weight was placed into a TA DSC pan, and weight was accurately recorded. Crimped pans were used for analysis, and the samples were heated under nitrogen (50 mL/min) at a rate of 10° C./min, up to a final temperature of 260° C.
However, the pXRD pattern obtained after the sample was cooled down to room temperature is similar to the initial material. […] It is estimated from DSC and hot-stage pXRD data that the transition temperature could well be above 100° C. […]

[3] = test system: mouse models of inflammatory states; details: multiple mouse models; including loss of growth stunting and loss of bone fragility; cited from earlier work
glucocorticoid receptor = molecular target: T1, glucocorticoid receptor (Homo sapiens, UniProt P04150); details: pre-clinical data, background statement; cited from earlier work
T1 sequence (P04150 1-777): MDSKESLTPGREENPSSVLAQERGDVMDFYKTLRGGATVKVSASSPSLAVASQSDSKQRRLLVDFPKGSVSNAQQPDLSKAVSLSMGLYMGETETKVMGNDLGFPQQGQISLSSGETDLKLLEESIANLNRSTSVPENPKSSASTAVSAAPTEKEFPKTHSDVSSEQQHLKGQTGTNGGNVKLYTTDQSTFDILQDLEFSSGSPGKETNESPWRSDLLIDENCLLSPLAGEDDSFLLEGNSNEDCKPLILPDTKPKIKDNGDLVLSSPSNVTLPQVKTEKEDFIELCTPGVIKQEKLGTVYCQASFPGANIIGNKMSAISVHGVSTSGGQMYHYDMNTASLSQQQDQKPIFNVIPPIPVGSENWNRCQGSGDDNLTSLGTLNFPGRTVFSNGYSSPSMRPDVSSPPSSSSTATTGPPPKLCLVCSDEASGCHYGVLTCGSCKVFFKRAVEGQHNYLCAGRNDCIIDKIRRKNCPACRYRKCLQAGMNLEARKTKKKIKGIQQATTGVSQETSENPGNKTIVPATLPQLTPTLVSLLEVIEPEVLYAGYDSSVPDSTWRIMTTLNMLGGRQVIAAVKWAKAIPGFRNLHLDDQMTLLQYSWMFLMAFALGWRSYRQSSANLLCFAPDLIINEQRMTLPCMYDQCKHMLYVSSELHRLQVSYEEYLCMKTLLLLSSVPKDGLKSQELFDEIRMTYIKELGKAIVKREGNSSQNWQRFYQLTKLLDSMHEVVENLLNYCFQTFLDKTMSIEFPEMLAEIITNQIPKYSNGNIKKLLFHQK

- relative stability of polymorphs ([2]; below the transition temperature): most stable form
Compound: C[C@@H]1C[C@H]2[C@@H]3CCC4=CC(=O)C=C[C@]4(C)C3=CC[C@]2(C)[C@@]1(O)C(=O)CO [Form I, 17α,21-dihydroxy-16α-methylpregna-1,4,9(11)-triene-3,20-dione]

- TGA weight loss ([1]; below about 225° C.): less than 1%
Compound: C[C@@H]1C[C@H]2[C@@H]3CCC4=CC(=O)C=C[C@]4(C)C3=CC[C@]2(C)[C@@]1(O)C(=O)CO [Form VII, 17α,21-dihydroxy-16α-methylpregna-1,4,9(11)-triene-3,20-dione]

- relative stability of polymorphs ([2]; above the transition temperature): most stable
Compound: C[C@@H]1C[C@H]2[C@@H]3CCC4=CC(=O)C=C[C@]4(C)C3=CC[C@]2(C)[C@@]1(O)C(=O)CO [Form II, 17α,21-dihydroxy-16α-methylpregna-1,4,9(11)-triene-3,20-dione]

Second part, the compound before the results:

Compound: C[C@@H]1C[C@H]2[C@@H]3CCC4=CC(=O)C=C[C@]4(C)C3=CC[C@]2(C)[C@@]1(O)C(=O)CO [Form IV, 17α,21-dihydroxy-16α-methylpregna-1,4,9(11)-triene-3,20-dione]
- TGA weight loss ([1]; FIG. 7, temperature not stated): < 0.5%
- TGA weight loss ([1]; below about 200° C.): less than 0.5%

Compound: C[C@@H]1C[C@H]2[C@@H]3CCC4=CC(=O)C=C[C@]4(C)C3=CC[C@]2(C)[C@@]1(O)C(=O)CO [vamorolone, 17α,21-dihydroxy-16α-methylpregna-1,4,9(11)-triene-3,20-dione]
- side effect profiles [3]: dramatically improves side effect profiles
- binding to the glucocorticoid receptor (glucocorticoid receptor): binds potently
